Source: patent US8753691B2, “Antiviral colloidal silver composition” (priority 1999, dated 2014)

Test system: Mycobacterium bovis BCG (TMC 1028)
Assay type: cell-based

SMILES: Oc1ccccc1 [phenol]
- log reduction (phenol resistance): ≈ 1.81
